Source: US20090311237A1, “Combination therapy using a soluble hyaluronidase and a bisphosphonate” (priority 2008, published 2009)
“And” between values parts separate entries of the source, which are not always exact repeats. Equal values may be shown once. Read-outs that look alike come from different tables or passages of the source.

Assay: Phase 1 Stage 1 clinical pharmacokinetics of SC ZA co-administered with rHuPH20
Type: in vivo, human
Conditions: for half-life / AUC(0-t) / Cmax / AUC(0-inf) / Tmax: human, serum; for half-life: read-out: T½ λz (converted); for AUC(0-inf): read-out: AUC (0-inf); for Tmax: read-out: Tmax
Protocol: A pharmacokinetic study of zoledronic acid (ZA) co-administered with rHuPH20 in human subjects was conducted. The primary objective of the study was to determine the bioavailability of zoledronic acid dosed via subcutaneous (SC) co-administration with human recombinant hyaluronidase PH20 (rHuPH20). […] The patients were administered the prescribed dosage formulations as follows: Cohorts 1-5 were administered a single subcutaneous infusion in a dosage volume of 100 ml at a rate of 3 mL/min. […] The dosing solution is administered via needle or catheter into the SC space of the left anterior thigh (midway between the anterior iliac crest and the cephalad border of the patella). For cohorts 1-5, the dosing solutions were administered by a controlled rate infusion pump at approximately 3 mL/minute. […] The dosing solutions were administered by syringe push bolus injection. […] Serum concentration of ZA was determined using a qualified LC-MS-MS assay after derivatization with diazomethane (Zhu, L S et al. (2006) Rapid Commun. […] The assay range was from 2.0 to 400 ng/mL with a lower limit of quantitation (LLOQ) at 2.0 ng/mL. […] Non-compartmental analysis was used for derivation of primary and secondary pharmacokinetic (PK) parameters. […] Summary statistics (mean, standard deviation, and median) were calculated using JMP or Microsoft Excel.

[1] = ZA 2 mg SC + 24000 U rHuPH20, mean, n=3
[2] = ZA 2 mg SC + 24000 U rHuPH20, median, n=3
[3] = ZA 2 mg SC, 100 mL, 24000 Units rHuPH20, n=3
[4] = ZA 5 mg SC + 24000 U rHuPH20, individual subjects
[5] = ZA 5 mg SC + 24000 U rHuPH20, mean, n=3
[6] = ZA 5 mg SC + 24000 U rHuPH20, median, n=3
[7] = ZA 5 mg SC, 100 mL, 24000 Units rHuPH20, n=3
[8] = ZA 0.25-5 mg SC, 100 mL, 24000 Units rHuPH20, n=15
[9] = sc, 0.0196 mg/kg, Subj 27, ZA 0.0196 mg/kg SC, inf […], PH20 23976 U
[10] = sc, 0.0339 mg/kg, Subj 29, ZA 0.0339 mg/kg SC, inf 0.556 hr, PH20 24000 U
[11] = sc, 0.0608 mg/kg, Subj 68, ZA 0.0608 mg/kg SC, inf […], PH20 2880 U
[12] = sc, 0.0653 mg/kg, Subj 41, ZA 0.0653 mg/kg SC, inf […], PH20 12216 U
[13] = sc, 0.0691 mg/kg, Subj 39, ZA 0.0691 mg/kg SC, inf 0.552 hr, PH20 23856 U
[14] = sc, 0.0706 mg/kg, Subj 38, ZA 0.0706 mg/kg SC, inf 0.554 hr, PH20 23952 U
[15] = sc, 0.0717 mg/kg, Subj 67, ZA 0.0717 mg/kg SC, inf […], PH20 2880 U
[16] = sc, 0.0776 mg/kg, Subj 70, ZA 0.0776 mg/kg SC, inf […], PH20 2928 U
[17] = sc, 0.0781 mg/kg, Subj 71, ZA 0.0781 mg/kg SC, inf […], PH20 6000 U

O=P(O)(O)C(O)(Cn1ccnc1)P(=O)(O)O [ZA, 1-hydroxy-2-(1H-imidazol-1-yl)ethylidene-1,1-bisphosphonic acid]
T½elim (ZA 2 mg SC + 24000 U rHuPH20, individual subjects): 12.72 h (2×) and 22.02 h
AUC (0-∞)/D [1]: 0.00791 kg·h/mL
Cmax/D [1]: 0.00176 kg/mL
T½elim [1]: 15.82 h
AUC (0-∞)/D [2]: 0.00809 kg·h/mL
Cmax/D [2]: 0.00175 kg/mL
T½elim [2]: 12.72 h
MAT (mean absorption time = SC MRT − IV MRT) (ZA 2 mg SC, 100 mL, 24000 Units rHuPH20, individual subjects): 0.47 h and 0.94 h and 1.39 h
MAT, Mean for the dose group [3]: 0.93 h
MAT, Median for the dose group [3]: 0.94 h
AUC (0-12h) [4]: 477.36 ng·h/mL and 575.89 ng·h/mL
AUC (0-∞) [4]: 729.31 ng·h/mL
AUC (0-∞)/D [4]: 0.00789 kg·h/mL and 0.00901 kg·h/mL and 0.01049 kg·h/mL
Cmax/D [4]: 0.00167 kg/mL and 0.00165 kg/mL and 0.00211 kg/mL
MRT [4]: 13.81 h
T½elim [4]: 23.36 h and 24.45 h and 26.05 h
AUC (0-∞)/D [5]: 0.00913 kg·h/mL
Cmax/D [5]: 0.00181 kg/mL
T½elim [5]: 24.62 h
AUC (0-∞)/D [6]: 0.00901 kg·h/mL
Cmax/D [6]: 0.00167 kg/mL
T½elim [6]: 24.45 h
MAT (mean absorption time = SC MRT − IV MRT) (ZA 5 mg SC, 100 mL, 24000 Units rHuPH20, individual subjects): 1.74 h and 4.61 h and 3.46 h
MAT, Mean for the dose group [7]: 3.27 h
MAT, Median for the dose group [7]: 3.46 h
MAT, Mean for all dose groups [8]: 1.64 h
MAT, Median for all dose groups [8]: 1.39 h
half-life (0.082 mg/kg, Subj 63, ZA 0.0820 mg/kg SC, inf 0.250 hr, PH20 6000 U): 20.5 h
AUC(0-t) (sc, 0.0196 mg/kg, AUC (0-12 h), Subj 27, ZA 0.0196 mg/kg SC, inf […], PH20 23976 U): 104 ng·h/mL
AUC(0-t) (sc, 0.0196 mg/kg, AUC (0-24 h), Subj 27, ZA 0.0196 mg/kg SC, inf […], PH20 23976 U): 116 ng·h/mL
AUC(0-t) (sc, 0.0196 mg/kg, AUC (0-48 h), Subj 27, ZA 0.0196 mg/kg SC, inf […], PH20 23976 U): 119 ng·h/mL
Cmax [9]: 25 ng/mL
AUC(0-inf) [9]: 120 ng·h/mL
Tmax [9]: 0.72 h
half-life (sc, 0.0196 mg/kg): 6.53 h
AUC(0-t) (sc, 0.0339 mg/kg, AUC (0-12 h), Subj 29, ZA 0.0339 mg/kg SC, inf 0.556 hr, PH20 24000 U): 217 ng·h/mL
AUC(0-t) (sc, 0.0339 mg/kg, AUC (0-24 h), Subj 29, ZA 0.0339 mg/kg SC, inf 0.556 hr, PH20 24000 U): 231 ng·h/mL
AUC(0-t) (sc, 0.0339 mg/kg, AUC (0-48 h), Subj 29, ZA 0.0339 mg/kg SC, inf 0.556 hr, PH20 24000 U): 236 ng·h/mL
Cmax [10]: 62.8 ng/mL
AUC(0-inf) [10]: 241 ng·h/mL
Tmax [10]: 1.29 h
AUC(0-t) (sc, 0.0608 mg/kg, AUC (0-12 h), Subj 68, ZA 0.0608 mg/kg SC, inf […], PH20 2880 U): 456 ng·h/mL
AUC(0-t) (sc, 0.0608 mg/kg, AUC (0-24 h), Subj 68, ZA 0.0608 mg/kg SC, inf […], PH20 2880 U): 503 ng·h/mL
AUC(0-t) (sc, 0.0608 mg/kg, AUC (0-48 h), Subj 68, ZA 0.0608 mg/kg SC, inf […], PH20 2880 U): 557 ng·h/mL
Cmax [11]: 144 ng/mL
AUC(0-inf) [11]: 630 ng·h/mL
Tmax [11]: 1 h
half-life (sc, 0.0608 mg/kg): 27.9 h
AUC(0-t) (sc, 0.0653 mg/kg, AUC (0-12 h), Subj 41, ZA 0.0653 mg/kg SC, inf […], PH20 12216 U): 487 ng·h/mL
AUC(0-t) (sc, 0.0653 mg/kg, AUC (0-24 h), Subj 41, ZA 0.0653 mg/kg SC, inf […], PH20 12216 U): 531 ng·h/mL
AUC(0-t) (sc, 0.0653 mg/kg, AUC (0-48 h), Subj 41, ZA 0.0653 mg/kg SC, inf […], PH20 12216 U): 597 ng·h/mL
Cmax [12]: 141 ng/mL
AUC(0-inf) [12]: 736 ng·h/mL
Tmax [12]: 1.01 h
half-life (sc, 0.0653 mg/kg): 42.8 h
AUC(0-t) (sc, 0.0691 mg/kg, AUC (0-12 h), Subj 39, ZA 0.0691 mg/kg SC, inf 0.552 hr, PH20 23856 U): 574 ng·h/mL
AUC(0-t) (sc, 0.0691 mg/kg, AUC (0-24 h), Subj 39, ZA 0.0691 mg/kg SC, inf 0.552 hr, PH20 23856 U): 619 ng·h/mL
AUC(0-t) (sc, 0.0691 mg/kg, AUC (0-48 h), Subj 39, ZA 0.0691 mg/kg SC, inf 0.552 hr, PH20 23856 U): 667 ng·h/mL
Cmax [13]: 147 ng/mL
AUC(0-inf) [13]: 727 ng·h/mL
Tmax [13]: 0.79 h
half-life (sc, 0.0691 mg/kg): 26.1 h
AUC(0-t) (sc, 0.0706 mg/kg, AUC (0-12 h), Subj 38, ZA 0.0706 mg/kg SC, inf 0.554 hr, PH20 23952 U): 477 ng·h/mL
AUC(0-t) (sc, 0.0706 mg/kg, AUC (0-24 h), Subj 38, ZA 0.0706 mg/kg SC, inf 0.554 hr, PH20 23952 U): 524 ng·h/mL
AUC(0-t) (sc, 0.0706 mg/kg, AUC (0-48 h), Subj 38, ZA 0.0706 mg/kg SC, inf 0.554 hr, PH20 23952 U): 580 ng·h/mL
Cmax [14]: 117 ng/mL
AUC(0-inf) [14]: 637 ng·h/mL
Tmax [14]: 1.3 h
AUC(0-t) (sc, 0.0717 mg/kg, AUC (0-12 h), Subj 67, ZA 0.0717 mg/kg SC, inf […], PH20 2880 U): 565 ng·h/mL
AUC(0-t) (sc, 0.0717 mg/kg, AUC (0-24 h), Subj 67, ZA 0.0717 mg/kg SC, inf […], PH20 2880 U): 630 ng·h/mL
AUC(0-t) (sc, 0.0717 mg/kg, AUC (0-48 h), Subj 67, ZA 0.0717 mg/kg SC, inf […], PH20 2880 U): 683 ng·h/mL
Cmax [15]: 156 ng/mL
AUC(0-inf) [15]: 725 ng·h/mL
Tmax [15]: 0.74 h
half-life (sc, 0.0717 mg/kg): 18.3 h
AUC(0-t) (sc, 0.0776 mg/kg, AUC (0-12 h), Subj 70, ZA 0.0776 mg/kg SC, inf […], PH20 2928 U): 573 ng·h/mL
AUC(0-t) (sc, 0.0776 mg/kg, AUC (0-24 h), Subj 70, ZA 0.0776 mg/kg SC, inf […], PH20 2928 U): 616 ng·h/mL
AUC(0-t) (sc, 0.0776 mg/kg, AUC (0-48 h), Subj 70, ZA 0.0776 mg/kg SC, inf […], PH20 2928 U): 658 ng·h/mL
Cmax [16]: 215 ng/mL
AUC(0-inf) [16]: 690 ng·h/mL
Tmax [16]: 0.68 h
half-life (sc, 0.0776 mg/kg): 19.4 h
AUC(0-t) (sc, 0.0781 mg/kg, AUC (0-12 h), Subj 71, ZA 0.0781 mg/kg SC, inf […], PH20 6000 U): 592 ng·h/mL
AUC(0-t) (sc, 0.0781 mg/kg, AUC (0-24 h), Subj 71, ZA 0.0781 mg/kg SC, inf […], PH20 6000 U): 629 ng·h/mL
AUC(0-t) (sc, 0.0781 mg/kg, AUC (0-48 h), Subj 71, ZA 0.0781 mg/kg SC, inf […], PH20 6000 U): 665 ng·h/mL
Cmax [17]: 198 ng/mL
AUC(0-inf) [17]: 693 ng·h/mL
Tmax [17]: 0.88 h
